The values that follow come from publication PMC6576746, “Rational discovery of dual-indication multi-target PDE/Kinase inhibitor for precision anti-cancer therapy using structural systems pharmacology” (PLoS Computational Biology, 2019).

Structures are written as SMILES.

Holding throughout (experiment): biochemical
Parameters in all cases: DiscoverX KinomeScan competition binding assay across human kinases; per cent of control at 10 and 100 uM

One assay addresses T1, BIKE (Homo sapiens, UniProt Q9NSY1).
T1 construct: gene BMP2K
Particulars: competition binding, % of control. The method, boiled down:
(§1)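 Binding is expressed as %control, normalised between positive and negative control signals. The compound (levosimendan) was tested at 10 μM and 100 μM in the DiscoverX KinomeScan competition binding format against human kinases.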

In another assay the target is BMPR2 (Homo sapiens, UniProt Q13873). The note with it: competition binding, % of control; read-out: Percent Control (100 uM Levosimendan). The method, boiled down: as §1
The target in a further assay is CAMK2B (Homo sapiens, UniProt Q13554). The note with it: competition binding, % of control; read-out: Percent Control (100 uM Levosimendan). The method, boiled down:
as §1

In the next assay the target is T2, CDK4-cyclinD1 (Homo sapiens, UniProt P11802).
T2 construct: cyclinD1
The note with it: competition binding, % of control; read-out: Percent Control (100 uM Levosimendan). The method, boiled down: as §1

For a further assay, the target named is ERBB3 (Homo sapiens, UniProt P21860). The note with it: competition binding, % of control; read-out: Percent Control (100 uM Levosimendan). The gist of the method:
as §1

The target in a further assay is ERN1 (Homo sapiens, UniProt O75460). Particulars: competition binding, % of control; read-out: Percent Control (100 uM Levosimendan). The gist of the method: as §1
For another assay, the target named is FGFR3(G697C) (Homo sapiens, UniProt P22607, G697C). Particulars: competition binding, % of control; read-out: Percent Control (100 uM Levosimendan). The gist of the method:
as §1

The next assay concerns the target T3, IKK-epsilon (Homo sapiens, UniProt Q14164).
T3 construct: gene IKBKE
Particulars: competition binding, % of control; read-out: Percent Control (100 uM Levosimendan). The gist of the method: as §1

In the next assay the target is IRAK1 (Homo sapiens, UniProt P51617). Particulars: competition binding, % of control; read-out: Percent Control (100 uM Levosimendan). The method, boiled down:
as §1

For another assay, the target named is KIT (Homo sapiens, UniProt P10721). Particulars: competition binding, % of control. The gist of the method: as §1
Chain of KIT (P10721 whole entry): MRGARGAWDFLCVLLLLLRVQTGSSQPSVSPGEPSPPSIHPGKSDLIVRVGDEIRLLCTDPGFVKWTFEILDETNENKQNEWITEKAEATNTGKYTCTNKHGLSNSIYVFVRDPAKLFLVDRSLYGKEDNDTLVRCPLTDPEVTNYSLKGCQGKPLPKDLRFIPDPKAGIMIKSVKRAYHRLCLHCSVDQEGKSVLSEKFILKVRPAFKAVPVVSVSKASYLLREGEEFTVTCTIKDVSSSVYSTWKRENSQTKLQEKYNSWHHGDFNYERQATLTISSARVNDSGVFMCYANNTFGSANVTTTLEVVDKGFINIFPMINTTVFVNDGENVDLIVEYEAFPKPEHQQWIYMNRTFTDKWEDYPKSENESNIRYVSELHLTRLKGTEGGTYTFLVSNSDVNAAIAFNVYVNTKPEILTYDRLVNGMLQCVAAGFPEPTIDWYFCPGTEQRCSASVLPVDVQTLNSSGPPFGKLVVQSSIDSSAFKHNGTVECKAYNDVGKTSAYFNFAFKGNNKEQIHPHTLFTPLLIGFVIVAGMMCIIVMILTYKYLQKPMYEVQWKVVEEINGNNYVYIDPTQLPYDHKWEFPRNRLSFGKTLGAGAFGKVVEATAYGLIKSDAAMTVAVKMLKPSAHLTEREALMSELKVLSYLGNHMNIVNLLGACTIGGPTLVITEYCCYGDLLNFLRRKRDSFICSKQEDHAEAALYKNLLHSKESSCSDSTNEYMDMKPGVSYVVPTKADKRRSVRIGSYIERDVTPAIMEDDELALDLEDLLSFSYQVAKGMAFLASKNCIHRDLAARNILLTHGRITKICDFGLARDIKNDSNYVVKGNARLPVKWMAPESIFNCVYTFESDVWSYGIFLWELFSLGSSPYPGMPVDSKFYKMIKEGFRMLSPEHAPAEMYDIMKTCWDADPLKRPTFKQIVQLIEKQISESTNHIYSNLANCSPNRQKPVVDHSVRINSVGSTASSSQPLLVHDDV
The target in another assay is NEK11 (Homo sapiens, UniProt Q8NG66). Particulars: competition binding, % of control; read-out: Percent Control (100 uM Levosimendan). The method, boiled down:
as §1

The target in the next assay is ROS1 (Homo sapiens, UniProt P08922). Particulars: competition binding, % of control; read-out: Percent Control (100 uM Levosimendan). The method, boiled down:
as §1

Another assay has as its target T4, SNARK (Homo sapiens, UniProt Q9H093).
T4 construct: gene NUAK2
Particulars: competition binding, % of control; read-out: Percent Control (100 uM Levosimendan). The gist of the method:
as §1

The target of the next assay is TESK1 (Homo sapiens, UniProt Q15569). The note with it: competition binding, % of control; read-out: Percent Control (100 uM Levosimendan). The method, boiled down: as §1
Another assay concerns the target ULK1 (Homo sapiens, UniProt O75385). The note with it: competition binding, % of control; read-out: Percent Control (100 uM Levosimendan). The gist of the method: as §1
A further assay addresses T5, VEGFR2 (Homo sapiens, UniProt P35968).
T5 construct: gene KDR
The note with it: competition binding, % of control; read-out: Percent Control (100 uM Levosimendan). The method, boiled down:
as §1

In the next assay the target is WEE2 (Homo sapiens, UniProt P0C1S8). The note with it: competition binding, % of control; read-out: Percent Control (100 uM Levosimendan). The method, boiled down: as §1
Chain of WEE2 (P0C1S8 whole entry): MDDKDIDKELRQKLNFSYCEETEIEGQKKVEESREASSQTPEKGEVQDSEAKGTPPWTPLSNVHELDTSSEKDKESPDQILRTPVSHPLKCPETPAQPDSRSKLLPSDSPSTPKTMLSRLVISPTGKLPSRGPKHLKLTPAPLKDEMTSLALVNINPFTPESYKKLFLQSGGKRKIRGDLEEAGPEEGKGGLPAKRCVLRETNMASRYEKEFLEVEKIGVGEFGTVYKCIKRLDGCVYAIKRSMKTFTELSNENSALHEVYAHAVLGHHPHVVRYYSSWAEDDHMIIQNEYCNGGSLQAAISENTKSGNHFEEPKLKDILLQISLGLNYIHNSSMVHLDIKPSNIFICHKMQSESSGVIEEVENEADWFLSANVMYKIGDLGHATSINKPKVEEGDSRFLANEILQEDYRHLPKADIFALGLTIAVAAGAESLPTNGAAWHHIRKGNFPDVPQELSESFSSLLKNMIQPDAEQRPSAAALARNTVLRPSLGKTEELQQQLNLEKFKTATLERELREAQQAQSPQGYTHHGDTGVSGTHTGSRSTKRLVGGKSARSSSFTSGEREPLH
In a further assay the target is T6, ZAK (Homo sapiens, UniProt Q9NYL2).
T6 construct: gene MAP3K20
T6 sequence (Q9NYL2 whole entry): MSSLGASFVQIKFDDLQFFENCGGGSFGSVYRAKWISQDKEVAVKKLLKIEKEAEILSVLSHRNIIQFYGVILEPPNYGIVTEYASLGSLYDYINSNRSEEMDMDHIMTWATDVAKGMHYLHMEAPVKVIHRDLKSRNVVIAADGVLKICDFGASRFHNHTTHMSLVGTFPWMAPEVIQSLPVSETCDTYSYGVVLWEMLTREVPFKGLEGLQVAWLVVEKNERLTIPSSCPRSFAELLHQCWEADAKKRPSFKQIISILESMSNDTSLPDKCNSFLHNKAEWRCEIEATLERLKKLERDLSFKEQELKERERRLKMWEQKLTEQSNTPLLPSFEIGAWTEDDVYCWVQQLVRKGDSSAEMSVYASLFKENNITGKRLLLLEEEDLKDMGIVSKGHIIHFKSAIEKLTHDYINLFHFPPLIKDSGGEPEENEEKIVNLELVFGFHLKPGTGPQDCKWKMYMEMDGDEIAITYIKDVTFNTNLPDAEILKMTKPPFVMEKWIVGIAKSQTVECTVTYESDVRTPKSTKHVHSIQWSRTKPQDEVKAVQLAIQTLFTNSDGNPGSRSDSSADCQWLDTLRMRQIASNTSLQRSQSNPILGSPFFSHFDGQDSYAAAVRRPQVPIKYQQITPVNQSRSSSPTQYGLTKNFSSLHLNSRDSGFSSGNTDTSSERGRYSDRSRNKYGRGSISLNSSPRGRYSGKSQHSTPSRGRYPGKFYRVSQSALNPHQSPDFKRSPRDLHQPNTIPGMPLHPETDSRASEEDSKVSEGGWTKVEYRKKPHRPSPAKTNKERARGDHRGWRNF
Particulars: competition binding, % of control. The method, boiled down:
as §1

In another assay the target is T7, p38-gamma (Homo sapiens, UniProt P53778).
T7 construct: gene MAPK12
T7 sequence (P53778 whole entry): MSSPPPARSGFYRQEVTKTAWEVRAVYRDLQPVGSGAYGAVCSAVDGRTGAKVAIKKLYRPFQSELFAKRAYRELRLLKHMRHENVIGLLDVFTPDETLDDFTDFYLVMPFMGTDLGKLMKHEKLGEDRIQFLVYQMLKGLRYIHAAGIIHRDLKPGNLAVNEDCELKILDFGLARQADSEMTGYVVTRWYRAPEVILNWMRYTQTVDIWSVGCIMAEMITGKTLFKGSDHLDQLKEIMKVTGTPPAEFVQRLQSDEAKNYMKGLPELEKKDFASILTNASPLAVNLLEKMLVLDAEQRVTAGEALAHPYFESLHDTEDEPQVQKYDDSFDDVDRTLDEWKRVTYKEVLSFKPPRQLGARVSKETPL
The note with it: competition binding, % of control. The method, boiled down:
as §1

[1] abbreviates: read-out: Percent Control (10 uM Levosimendan).
Where [2] appears, read: read-out: Percent Control (100 uM Levosimendan).

T1 sequence (Q9NSY1 whole entry): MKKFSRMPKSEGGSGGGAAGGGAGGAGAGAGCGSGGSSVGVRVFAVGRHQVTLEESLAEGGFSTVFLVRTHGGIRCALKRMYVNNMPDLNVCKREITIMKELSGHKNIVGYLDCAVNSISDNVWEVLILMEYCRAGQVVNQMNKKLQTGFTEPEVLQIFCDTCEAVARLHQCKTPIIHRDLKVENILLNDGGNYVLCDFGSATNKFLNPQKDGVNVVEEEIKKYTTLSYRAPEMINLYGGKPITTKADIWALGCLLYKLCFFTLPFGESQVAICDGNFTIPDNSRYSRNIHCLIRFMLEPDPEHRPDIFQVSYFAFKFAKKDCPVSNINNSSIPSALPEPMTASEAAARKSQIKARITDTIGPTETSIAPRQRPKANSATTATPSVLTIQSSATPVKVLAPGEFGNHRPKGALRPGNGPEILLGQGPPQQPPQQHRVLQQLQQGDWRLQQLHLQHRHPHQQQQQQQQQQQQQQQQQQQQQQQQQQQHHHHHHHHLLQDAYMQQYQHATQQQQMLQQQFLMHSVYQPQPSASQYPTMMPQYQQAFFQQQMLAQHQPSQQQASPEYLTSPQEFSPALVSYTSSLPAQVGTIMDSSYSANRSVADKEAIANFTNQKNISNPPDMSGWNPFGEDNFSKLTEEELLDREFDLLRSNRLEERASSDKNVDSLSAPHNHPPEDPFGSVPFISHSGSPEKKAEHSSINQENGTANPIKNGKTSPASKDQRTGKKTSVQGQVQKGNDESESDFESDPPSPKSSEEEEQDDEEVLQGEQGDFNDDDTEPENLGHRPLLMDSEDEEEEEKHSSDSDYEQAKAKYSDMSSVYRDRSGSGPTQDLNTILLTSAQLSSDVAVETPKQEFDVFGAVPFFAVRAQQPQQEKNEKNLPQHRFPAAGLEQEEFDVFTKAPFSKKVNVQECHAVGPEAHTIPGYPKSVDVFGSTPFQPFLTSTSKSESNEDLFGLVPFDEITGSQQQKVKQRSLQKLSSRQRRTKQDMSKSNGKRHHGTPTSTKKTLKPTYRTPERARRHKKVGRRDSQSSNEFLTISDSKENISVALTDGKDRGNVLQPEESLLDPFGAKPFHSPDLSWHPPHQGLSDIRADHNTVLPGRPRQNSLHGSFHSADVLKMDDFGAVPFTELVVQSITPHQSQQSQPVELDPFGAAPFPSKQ
Chain of CAMK2B (Q13554 whole entry): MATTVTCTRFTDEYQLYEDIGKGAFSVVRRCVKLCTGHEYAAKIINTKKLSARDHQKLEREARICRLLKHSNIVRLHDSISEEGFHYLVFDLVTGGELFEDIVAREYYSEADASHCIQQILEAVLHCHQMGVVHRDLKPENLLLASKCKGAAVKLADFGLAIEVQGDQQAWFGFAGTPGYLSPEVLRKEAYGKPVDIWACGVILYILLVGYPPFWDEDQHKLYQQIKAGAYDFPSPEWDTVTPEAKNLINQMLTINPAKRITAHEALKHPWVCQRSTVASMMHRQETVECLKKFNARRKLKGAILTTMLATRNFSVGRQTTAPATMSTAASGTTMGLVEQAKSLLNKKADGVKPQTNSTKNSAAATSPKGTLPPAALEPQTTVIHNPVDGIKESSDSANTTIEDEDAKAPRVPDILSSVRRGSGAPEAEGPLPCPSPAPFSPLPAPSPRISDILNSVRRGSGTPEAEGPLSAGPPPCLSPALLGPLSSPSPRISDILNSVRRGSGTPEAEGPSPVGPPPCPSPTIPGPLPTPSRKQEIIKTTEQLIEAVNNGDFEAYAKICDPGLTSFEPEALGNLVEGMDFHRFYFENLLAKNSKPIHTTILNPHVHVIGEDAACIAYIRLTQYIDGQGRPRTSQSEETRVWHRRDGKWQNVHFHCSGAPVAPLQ

Turning to `C[C@@H]1CC(=O)NN=C1c1ccc(NN=C(C#N)C#N)cc1` [levosimendan], the remaining binding at 10 µM on BIKE (setting [1]) was determined as 47%; at KIT (setting [1]), 26%; on ZAK (setting [1]), 100%; on p38-gamma (setting [1]), 92%. For the same compound, the remaining binding at 100 µM on BIKE (setting [2]) came out at 2.2%; at BMPR2, 100%; on CAMK2B it was 90%; on CDK4-cyclinD1 it was 84%; at ERBB3, 75%; at ERN1, 79%. Also, the remaining binding at 100 µM at FGFR3(G697C) was found to be 80%; at IKK-epsilon, 93%; on IRAK1, 61%; on KIT (setting [2]), 3.5%; at NEK11 it was 100%; at ROS1, 62%. Also, the remaining binding at 100 µM on SNARK was determined as 100%; at TESK1, 96%; on ULK1, 95%; at VEGFR2, 100%; at WEE2, 76%; at ZAK (setting [2]), 52%. In addition, the remaining binding at 100 µM on p38-gamma (setting [2]) came out at 52%.
